{
  "source": "patent US9809853B2",
  "about": "“Calcium-activated chloride channel involved in human sweat formation” (BRAIN Biotechnology Research and Information Network AG, priority 2012, dated 2017)",
  "biological_target": "T1, TMEM16A(ac) (Homo sapiens, UniProt Q5XXA6, DEL476-501)",
  "T1 construct": "expressed in transfected cells",
  "T1 sequence (Q5XXA6 with tags, fused parts or gaps DEL476-501)": "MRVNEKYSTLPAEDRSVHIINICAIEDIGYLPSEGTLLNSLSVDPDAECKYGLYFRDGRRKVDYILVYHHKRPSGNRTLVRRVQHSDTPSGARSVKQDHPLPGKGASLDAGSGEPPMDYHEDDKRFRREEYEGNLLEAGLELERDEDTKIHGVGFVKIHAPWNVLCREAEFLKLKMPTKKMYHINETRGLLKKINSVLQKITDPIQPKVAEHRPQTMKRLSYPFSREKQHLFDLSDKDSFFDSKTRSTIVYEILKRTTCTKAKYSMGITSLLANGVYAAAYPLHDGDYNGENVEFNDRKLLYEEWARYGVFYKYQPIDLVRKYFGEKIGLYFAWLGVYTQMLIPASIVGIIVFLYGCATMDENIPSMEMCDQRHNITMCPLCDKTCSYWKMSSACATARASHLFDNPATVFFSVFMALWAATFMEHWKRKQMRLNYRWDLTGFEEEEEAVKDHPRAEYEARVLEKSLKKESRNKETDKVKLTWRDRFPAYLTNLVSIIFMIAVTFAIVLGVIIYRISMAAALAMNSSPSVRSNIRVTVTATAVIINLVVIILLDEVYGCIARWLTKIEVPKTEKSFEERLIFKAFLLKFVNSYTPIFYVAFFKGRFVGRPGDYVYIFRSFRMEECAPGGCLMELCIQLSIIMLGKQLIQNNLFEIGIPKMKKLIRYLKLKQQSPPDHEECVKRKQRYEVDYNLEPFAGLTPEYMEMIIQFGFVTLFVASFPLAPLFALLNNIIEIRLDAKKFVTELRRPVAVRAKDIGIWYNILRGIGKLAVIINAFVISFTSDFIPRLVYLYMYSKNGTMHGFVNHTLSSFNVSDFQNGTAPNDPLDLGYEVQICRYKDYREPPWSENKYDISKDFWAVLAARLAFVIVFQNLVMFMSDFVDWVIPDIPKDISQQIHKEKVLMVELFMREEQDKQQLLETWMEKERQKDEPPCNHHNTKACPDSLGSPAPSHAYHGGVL",
  "test": "hsYFP quenching assay in NCL-SG3-hsYFP-TMEM16A(ac) cells",
  "assay_type": "cell-based",
  "conditions": "330 μM ATP; for Effect of pretreatment on hsYFP quenching / Ca^2+-dependent Cl^− secretion after ATP: cells overexpressing TMEM16A(ac)",
  "protocol": "NCL-SG3-hsYFP, NCL-SG 3-hsYFP-TMEM16A(ac) and NCL-SG3-hsYFP-TMEM16A(acΔe3) cells were untreated (basal activity) or stimulated with ATP (330 μM). Quenching of hsYFP fluorescence was determined. The rate of I^− influx (sec^−1) was calculated from the initial slope of measured hsYFP fluorescence (ΔYFP fluorescence/Δtime) and is a direct measure of CaCC activity. For better comparison fold changes compared to basal activity of parental cells are shown. […] All influx rate differences are higly statistically significant, except the basal influx rate of parental and TMEM16A(ac) overexpressing NCL-SG3-hsYFP cells (Student's t-test, two-tailed; *** p-value<0.0001).\nTMEM16A(ac) and TMEM16A(acΔe3) are present in human eccrine sweat glands and were therefore obtained by RT-PCR amplification using TRIzol® (Invitrogen) extracted RNA from freshly isolated human eccrine sweat glands using oligonucleotides (forward 5′-[…]; reverse 5′-[…]) SEQ ID NOS: 5 and 6 , which amplify full-length TMEM16A, and subsequently cloned into the proprietary eukaryotic gene expression plasmid (pEF1α-TMEM16A(ac) and pEF1α-TMEM16A(acΔe3), FIG. 6A). […] Both genes are coupled by an internal ribosomal entry site (IRES) to enable efficient translation of both open reading frames located on the same mRNA. […]\nTaken together, NCL-SG3-hsYFP cells can be used to monitor Ca^2+-dependent Cl^− fluxes, which represent the initial step in primary sweat formation in sweat gland cells. […] Microplates were transferred into an automated fluorescence plate reader (FlexStation®, Molecular Devices) and cellular hsYFP fluorescence was continuously recorded every 3.5 sec until end of the experiment (excitation at 485 nm, emission at 535 nm, cutoff 515 nm). […] NCL-SG3-hsYFP cells allow quantitative evaluation of in vivo Cl^− channel activity (FIGS. 9 and 10D). To determine the exact rate of Cl^− efflux/I^− influx the hsYFP fluorescence was plotted against time (ΔYFP fluorescence/Δtime). […]",
  "data": [
    {"smiles": "Nc1ncnc2c1ncn2[C@@H]1O[C@H](COP(=O)(O)OP(=O)(O)OP(=O)(O)O)[C@@H](O)[C@H]1O", "note": "[ATP]", "values": [
      {"measurement": "ATP-induced activity (I^− influx rate, fold)", "setting": "TMEM16A(ac) overexpressing cells", "value": 10, "unit": "fold"}
    ]},
    {"smiles": "O=C(OC[C@H]1O[C@@H](OC(=O)c2cc(O)c(O)c(OC(=O)c3cc(O)c(O)c(O)c3)c2)[C@H](OC(=O)c2cc(O)c(O)c(OC(=O)c3cc(O)c(O)c(O)c3)c2)[C@@H](OC(=O)c2cc(O)c(O)c(OC(=O)c3cc(O)c(O)c(O)c3)c2)[C@@H]1OC(=O)c1cc(O)c(O)c(OC(=O)c2cc(O)c(O)c(O)c2)c1)c1cc(O)c(O)c(OC(=O)c2cc(O)c(O)c(O)c2)c1", "note": "[TA, tannic acid]", "values": [
      {"measurement": "Effect of pretreatment on hsYFP quenching / Ca^2+-dependent Cl^− secretion after ATP", "value": "significant reduction of hsYFP quenching"},
      {"measurement": "Effect of pretreatment on hsYFP quenching / Ca^2+-dependent Cl^− secretion after ATP", "setting": "listed as tannic acid", "value": "inhibited"}
    ]}
  ]
}
